Structures are written as SMILES.

In general, IC50 refers to the concentration that inhibits the measured activity by half. Read a low IC50 as greater potency in that assay.

This assay concerns P. falciparum 3D7 growth, pLDH absorbance. The experiment in a line: P. falciparum 3D7 growth inhibition, dose response, strain 3D7 (AID 2305).

In turn, `COc1ccc2nccc([C@@H](O)CN3CCC(NC(=O)Cn4nc(-c5ccc(C(F)(F)F)cc5)ccc4=O)CC3)c2c1` gave an IC50 of 740 nM.

`CC(CNC1CCN(CCn2c(=O)ccc3ccc(F)cc32)CC1)c1ccccc1` (centres undefined) showed a half-inhibitory concentration (IC50) of 1270 nM. This IC50 is about 1.7-fold higher than that of the compound before.

Compound `CC1CCN(C(=O)[C@H](Cc2c[nH]c3ccccc23)NS(=O)(=O)c2ccc(Cl)cc2)CC1` yielded an IC50 of 670 nM.

Consider `c1ccc(CNCc2ccc(-c3ccc(-c4nc5ccccc5[nH]4)cc3)cc2)cc1`, for which the concentration for half-maximal inhibition (IC50) is 340 nM.

Compound `Cc1nc(C)c(-c2ccc(Oc3ccc(OC(F)(F)F)cc3)cc2)c(OC(=O)c2ccccc2)c1Cl` gave an IC50 of 180 nM.

On to `COc1cc(NC(=O)Nc2cc(C)nc3ccccc23)cc(OC)c1`, for which the concentration for half-maximal inhibition (IC50) amounted to 400 nM.

With `CNC(=O)c1cnc(Nc2ccc(N3CCOCC3)cc2)nc1Nc1cccc(O)c1`, the IC50 was determined as 810 nM.

The compound `CCOc1cc(C(=O)NCCN(C(C)C)C(C)C)ccc1-c1nc2ccc(Cl)cc2[nH]1` came in with an IC50 of 780 nM.

`NCc1ccc(CNCc2cccc(-c3cccc(-c4nc5ccccc5[nH]4)c3)c2)cc1` showed an IC50 of 490 nM.

In turn, `OCCN1CCN(Cc2ccc(-c3ccc(-c4nc5ccc(F)cc5[nH]4)cc3)cc2)CC1` returned a half-maximal inhibitory concentration (IC50) of 570 nM.

As to `NC(N)=Nc1nc(-c2cccc(NC(=O)NCC(c3ccccc3)c3ccccc3)c2)cs1`, the IC50 was 790 nM.

`O=C(Nc1ccc(Cl)c(C(F)(F)F)c1)c1ccc(C(=O)Nc2ccc(Cl)c(C(F)(F)F)c2)cc1` yielded an IC50 of 1000 nM.

The compound `COc1cc(N(Cc2ccccc2C)S(=O)(=O)Cc2ccccc2[N+](=O)[O-])c(OC)cc1Cl` showed an IC50 of 1010 nM.

Turning to `CN(C)CC(=O)N(Cc1ccc(Cl)c(Cl)c1)Cc1csc(-c2ccc(CNCc3ccccc3)cc2)n1`, the IC50 was determined as 1050 nM. This IC50 and that of the compound before are within 1.5-fold of each other.

Compound `CC(C)(C)c1ccc(C(=O)Nc2ccc3nc4c(c(N)c3c2)CCCC4)cc1` had an IC50 of 170 nM. Against the preceding compound, the IC50 is about 6.2-fold lower.

`CN(C)CCN(C)Cc1ccc(-c2ccc(NC(=O)c3ccc(Cl)cc3)cc2)cc1`: the IC50 is 940 nM.

As for `COC(=O)Cn1c(C2CCN(CC3CCC(NC(=O)/C=C/c4ccc(Cl)c(Cl)c4)CC3)CC2)nc2ccccc21` (centres undefined), the IC50 amounted to 1140 nM.

`CC(Nc1ncc(-c2ccsc2)c(-c2nccs2)n1)c1ccc2c(c1)OCCO2` (centres undefined) had a half-maximal inhibitory concentration (IC50) of 170 nM.

With `CCOc1cc(C(=O)Nc2cccnc2)ccc1-c1nc2cc(Cl)c(Cl)cc2[nH]1`, the IC50 turned out to be 1010 nM.

For the compound `CC(C)N(Cc1cnc(N)c(C#N)n1)c1ccc(Cl)c(Cl)c1`, the IC50 came out at 840 nM.

`CC(C)n1c(C2CCN(CC3CCN(C(=O)/C=C/c4ccc(Cl)c(Cl)c4)CC3)CC2)nc2ccccc21` displayed an IC50 of 1030 nM. The IC50 values of the last two compounds are within 1.5-fold of each other.

For `CCN(CCCN1CCCCC1)c1cc(C)nc(Nc2cccc3c2CCCC3)n1`, the IC50 was 1030 nM.

`O=C(Nc1ccc(N2CCCN(Cc3cccc(F)c3)CC2)cc1)c1ccccc1` yielded an IC50 of 960 nM.

As to `CN(C)c1ccc(N2C(N)=NC(N)=NC23CCCC3)cc1`, the IC50 came out at 930 nM.

Consider `CCOC(=O)c1ccc(N2CCCCC2)c(NC(=O)C(Cl)(Cl)Cl)c1`, for which the IC50 stood at 850 nM.

Take `Cc1sc2nc(CSc3ccccc3)nc(N3CCN(CC(=O)N4CCCC4)CC3)c2c1C`: the IC50 worked out at 1260 nM. The IC50 values of the last two compounds are within 1.5-fold of each other.

`COc1ccc2nc(N3CCNCC3)nc(NCCCc3ccccc3)c2c1` registered a half-inhibitory concentration (IC50) of 1000 nM. The IC50 values of the last two compounds are within 1.5-fold of each other.

`Nc1nc(N)c2c3c(cnc2n1)CCCC3`: the IC50 was 770 nM.

In turn, `COc1ccc(CCC(C)(C)NCC(O)c2cccc(C(F)(F)F)c2)cc1` (centres undefined) gave an IC50 of 480 nM.

Regarding `O=C(Cc1cnc[nH]1)Nc1ccc(-c2ccc(-c3nc4ccccc4[nH]3)s2)cc1`, the IC50 turned out to be 1060 nM.

In turn, `COc1ccc(N2CCN(CCCCNC(=O)c3ccc(NC(=O)c4cc(C(F)(F)F)cc(C(F)(F)F)c4)cc3)CC2)cc1OC` gave an IC50 of 220 nM.

For the compound `Cc1ccccc1C1CCN(C2CCC(NC(=O)/C=C/c3ccccc3C(F)(F)F)CC2)CC1` (centres undefined), the IC50 came out at 1410 nM.

On to `COc1ccc(-c2ccc(CNCc3ccc(F)cc3)cc2)cc1S(=O)(=O)NCCN1CCCC1`, for which the IC50 was 730 nM.

As for `COc1ccc(CNc2ccnc3cc(OC)ccc23)cc1`, the IC50 came to 770 nM.

The compound `N#Cc1ccc2c(c1)CCN(CCC1CCC(NC(=O)Nc3cnc4ccccc4c3)CC1)C2` (centres undefined) gave an IC50 of 770 nM.

The compound `OCCc1ccc(Nc2nccc(-c3nnc4ccccn34)n2)cc1` showed an IC50 of 900 nM.

With `Fc1ccc2nc(-c3ccc(-c4cccc(CN5CCN(CCN6CCOCC6)CC5)c4)cc3)[nH]c2c1`, the IC50 was 140 nM.

Take `Cc1noc(C)c1-c1cccc(C(=O)NC2CCN(CCNC(=O)C(c3ccccc3)c3ccccc3)CC2)c1`: the IC50 came to 1220 nM.

Consider `Cc1cccc2[nH]c(-c3cccc(-c4ccc(C(=O)N5CCCCC5C(C)O)cc4)c3)nc12` (centres undefined), for which the IC50 amounted to 370 nM.

On to `CCCCCC(C)N=C(Nc1ccc(C#N)cc1O)Nc1cccc(Cl)c1Cl` (centres undefined), for which the 50% inhibitory concentration (IC50) stood at 800 nM.

`COc1ccc(NC(=O)/C=C/c2ccc(Cl)c(C(F)(F)F)c2)cc1OCCN(C(C)C)C(C)C` displayed a half-inhibitory concentration (IC50) of 630 nM.

With `CCN(CC)C(=NCCCCCCN=C(/N=C(\N)Nc1ccc(Cl)c(Cl)c1)N(CC)CC)/N=C(\N)Nc1ccc(Cl)c(Cl)c1`, the IC50 is 760 nM. The IC50 values of the last two compounds are within 1.5-fold of each other.

In turn, `O=C(Nc1ccc(Br)cc1)N(CCN1CCOCC1)CC(O)COCc1ccc(F)cc1` (centres undefined) had an IC50 of 1040 nM.

`CC(=O)c1c(CC(=O)O)c2ccccc2n1O` yielded a concentration for half-maximal inhibition (IC50) of 740 nM.

The values above are taken from PubChem BioAssay AID2305 (GlaxoSmithKline (GSK), 2010).
